Assay results: PubChem BioAssay (NCI)
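A five-concentration, 48-hour dose response in 96-well plates underlies each endpoint, interpolated linearly between surrounding concentrations. Definition used: TGI = concentration required for complete inhibition of growth.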

What was measured:
Assay in all cases: growth of human tumour cells (NCI), 48 h
786-0 renal = tested on: 786-0 renal
A498 renal = tested on: A498 renal
A549 NSCLC = tested on: A549 NSCLC
ACHN renal = tested on: ACHN renal
CAKI-1 renal = tested on: CAKI-1 renal
COLO 205 colon = tested on: COLO 205 colon
DU-145 prostate = tested on: DU-145 prostate
HCT-116 colon = tested on: HCT-116 colon
HOP-62 NSCLC = tested on: HOP-62 NSCLC
HT29 colon = tested on: HT29 colon
K-562 leukemia = tested on: K-562 leukemia
KM12 colon = tested on: KM12 colon
M14 melanoma = tested on: M14 melanoma
MCF7 breast = tested on: MCF7 breast
MDA-MB-231 breast = tested on: MDA-MB-231 breast
MDA-MB-435 = tested on: MDA-MB-435
MDA-N = tested on: MDA-N
MOLT-4 leukemia = tested on: MOLT-4 leukemia
NCI-H23 lung = tested on: NCI-H23 lung
NCI-H460 lung = tested on: NCI-H460 lung
NCI-H522 lung = tested on: NCI-H522 lung
NCI/ADR-RES ovarian = tested on: NCI/ADR-RES ovarian
OVCAR-3 ovarian = tested on: OVCAR-3 ovarian
OVCAR-4 ovarian = tested on: OVCAR-4 ovarian
OVCAR-5 ovarian = tested on: OVCAR-5 ovarian
OVCAR-8 ovarian = tested on: OVCAR-8 ovarian
PC-3 prostate = tested on: PC-3 prostate
RXF 393 renal = tested on: RXF 393 renal
SF-268 CNS = tested on: SF-268 CNS
SF-295 CNS = tested on: SF-295 CNS
SF-539 CNS = tested on: SF-539 CNS
SK-MEL-2 melanoma = tested on: SK-MEL-2 melanoma
SK-MEL-28 melanoma = tested on: SK-MEL-28 melanoma
SK-MEL-5 melanoma = tested on: SK-MEL-5 melanoma
SK-OV-3 ovarian = tested on: SK-OV-3 ovarian
SN12C renal = tested on: SN12C renal
SNB-19 CNS = tested on: SNB-19 CNS
SW-620 colon = tested on: SW-620 colon
T-47D breast = tested on: T-47D breast
TK-10 renal = tested on: TK-10 renal
U251 CNS = tested on: U251 CNS
UACC-62 melanoma = tested on: UACC-62 melanoma
UO-31 renal = tested on: UO-31 renal
CCRF-CEM leukemia = tested on: CCRF-CEM leukemia
EKVX NSCLC = tested on: EKVX NSCLC
HCC-2998 colon = tested on: HCC-2998 colon
HS 578T breast = tested on: HS 578T breast
IGROV1 ovarian = tested on: IGROV1 ovarian
LOX IMVI melanoma = tested on: LOX IMVI melanoma
RPMI-8226 leukemia = tested on: RPMI-8226 leukemia
SNB-75 CNS = tested on: SNB-75 CNS
SR leukemia = tested on: SR leukemia
UACC-257 melanoma = tested on: UACC-257 melanoma
HOP-92 NSCLC = tested on: HOP-92 NSCLC
MALME-3M melanoma = tested on: MALME-3M melanoma
NCI-H226 lung = tested on: NCI-H226 lung

With `CNC(=O)CNC(=O)CCC(=O)OC` the TGI (786-0 renal) was > 100 µM, the TGI (A498 renal) was > 100 µM and the TGI (A549 NSCLC) was > 100 µM. For the same compound, the TGI (ACHN renal) was > 100 µM, the TGI (CAKI-1 renal) was > 100 µM and the TGI (COLO 205 colon) was > 100 µM. For the same compound, the TGI (DU-145 prostate) was > 100 µM, the TGI (HCT-116 colon) was > 100 µM and the TGI (HOP-62 NSCLC) was > 100 µM. For the same compound, the TGI (HT29 colon) was > 100 µM, the TGI (K-562 leukemia) was > 100 µM and the TGI (KM12 colon) was > 100 µM. The TGI (M14 melanoma) was > 100 µM, the TGI (MCF7 breast) was > 100 µM and the TGI (MDA-MB-231 breast) was > 100 µM. The TGI (MDA-MB-435) was > 100 µM, the TGI (MDA-N) was > 100 µM and the TGI (MOLT-4 leukemia) was > 100 µM. For the same compound, the TGI (NCI-H23 lung) was > 100 µM, the TGI (NCI-H460 lung) was > 100 µM and the TGI (NCI-H522 lung) was > 100 µM. The TGI (NCI/ADR-RES ovarian) was > 100 µM, the TGI (OVCAR-3 ovarian) was > 100 µM and the TGI (OVCAR-4 ovarian) was > 100 µM. The TGI (OVCAR-5 ovarian) was > 100 µM, the TGI (OVCAR-8 ovarian) was > 100 µM and the TGI (PC-3 prostate) was > 100 µM. For the same compound, the TGI (RXF 393 renal) was > 100 µM, the TGI (SF-268 CNS) was > 100 µM and the TGI (SF-295 CNS) was > 100 µM. For the same compound, the TGI (SF-539 CNS) was > 100 µM, the TGI (SK-MEL-2 melanoma) was > 100 µM and the TGI (SK-MEL-28 melanoma) was > 100 µM. For the same compound, the TGI (SK-MEL-5 melanoma) was > 100 µM, the TGI (SK-OV-3 ovarian) was > 100 µM and the TGI (SN12C renal) was > 100 µM. The TGI (SNB-19 CNS) was > 100 µM, the TGI (SW-620 colon) was > 100 µM and the TGI (T-47D breast) was > 100 µM. The TGI (TK-10 renal) was > 100 µM, the TGI (U251 CNS) was > 100 µM and the TGI (UACC-62 melanoma) was > 100 µM. For the same compound, the TGI (UO-31 renal) was > 100 µM.

`C=C1C(=O)[C@@]23CC[C@@H]4[C@@]5(C)CCC[C@@]4(OC5=O)C2(C)CC[C@]1(OC)C3` (stereo not given in full) gave a TGI (786-0 renal) of 1.17 µM, a TGI (A549 NSCLC) of 12.7 µM and a TGI (ACHN renal) of 3.98 µM. For the same compound, the TGI (CAKI-1 renal) was 3.41 µM, the TGI (CCRF-CEM leukemia) was 0.436 µM and the TGI (COLO 205 colon) was 5.64 µM. For the same compound, the TGI (DU-145 prostate) was 18 µM, the TGI (EKVX NSCLC) was 21.8 µM and the TGI (HCC-2998 colon) was 1.37 µM. For the same compound, the TGI (HCT-116 colon) was 1.88 µM, the TGI (HOP-62 NSCLC) was 4.56 µM and the TGI (HS 578T breast) was 6.69 µM. It also gave a TGI (IGROV1 ovarian) of 4.76 µM, a TGI (K-562 leukemia) of 1.24 µM and a TGI (KM12 colon) of 6.85 µM. For the same compound, the TGI (LOX IMVI melanoma) was 1.19 µM, the TGI (M14 melanoma) was 4.25 µM and the TGI (MCF7 breast) was 1.22 µM. It also gave a TGI (MDA-MB-435) of 3.22 µM, a TGI (MDA-N) of 2.02 µM and a TGI (MOLT-4 leukemia) of 1.98 µM. For the same compound, the TGI (NCI-H23 lung) was 5.07 µM, the TGI (NCI-H460 lung) was 6.92 µM and the TGI (NCI-H522 lung) was 2.36 µM. The TGI (NCI/ADR-RES ovarian) was 6.59 µM, the TGI (OVCAR-3 ovarian) was 2.34 µM and the TGI (OVCAR-5 ovarian) was 3.69 µM. It also gave a TGI (OVCAR-8 ovarian) of 4 µM, a TGI (PC-3 prostate) of 2.44 µM and a TGI (RPMI-8226 leukemia) of 0.864 µM. For the same compound, the TGI (SF-268 CNS) was 7.2 µM, the TGI (SF-295 CNS) was 13.4 µM and the TGI (SF-539 CNS) was 3.21 µM. It also gave a TGI (SK-MEL-2 melanoma) of 2.58 µM, a TGI (SK-MEL-28 melanoma) of 3.66 µM and a TGI (SK-MEL-5 melanoma) of 3.39 µM. For the same compound, the TGI (SN12C renal) was 4.92 µM, the TGI (SNB-19 CNS) was 3.63 µM and the TGI (SNB-75 CNS) was 3.07 µM. The TGI (SR leukemia) was 1.46 µM, the TGI (SW-620 colon) was 3.23 µM and the TGI (T-47D breast) was 4.6 µM. The TGI (TK-10 renal) was 3.18 µM, the TGI (UACC-257 melanoma) was 3.81 µM and the TGI (UO-31 renal) was 3.19 µM.

With `O=C1Cc2c([nH]c3ccc(Cl)cc23)-c2ccccc2N1` the TGI (786-0 renal) was > 100 µM, the TGI (A498 renal) was > 100 µM and the TGI (A549 NSCLC) was > 100 µM. The TGI (ACHN renal) was > 100 µM, the TGI (COLO 205 colon) was > 100 µM and the TGI (HCT-116 colon) was > 100 µM. The TGI (HOP-92 NSCLC) was > 100 µM, the TGI (HS 578T breast) was > 100 µM and the TGI (IGROV1 ovarian) was > 100 µM. For the same compound, the TGI (LOX IMVI melanoma) was > 100 µM, the TGI (M14 melanoma) was > 100 µM and the TGI (MALME-3M melanoma) was > 100 µM. The TGI (MCF7 breast) was > 100 µM, the TGI (MDA-MB-231 breast) was > 100 µM and the TGI (MDA-MB-435) was > 100 µM. The TGI (MDA-N) was > 100 µM, the TGI (NCI-H226 lung) was > 100 µM and the TGI (NCI-H23 lung) was > 100 µM. The TGI (NCI-H460 lung) was > 100 µM, the TGI (NCI-H522 lung) was > 100 µM and the TGI (NCI/ADR-RES ovarian) was > 100 µM. The TGI (OVCAR-4 ovarian) was > 100 µM, the TGI (OVCAR-8 ovarian) was > 100 µM and the TGI (RPMI-8226 leukemia) was > 100 µM. The TGI (SF-268 CNS) was > 100 µM, the TGI (SF-295 CNS) was > 100 µM and the TGI (SK-MEL-28 melanoma) was > 100 µM. For the same compound, the TGI (SK-MEL-5 melanoma) was > 100 µM, the TGI (SK-OV-3 ovarian) was > 100 µM and the TGI (SN12C renal) was > 100 µM. The TGI (SNB-19 CNS) was > 100 µM, the TGI (SNB-75 CNS) was > 100 µM and the TGI (T-47D breast) was > 100 µM. For the same compound, the TGI (TK-10 renal) was > 100 µM, the TGI (U251 CNS) was > 100 µM and the TGI (UACC-62 melanoma) was > 100 µM. The TGI (UO-31 renal) was > 100 µM.
